Values quoted from earlier work, collected in US20020187165A1, “Composition for female sexual arousal” (Joseph F. Long, priority 2001, published 2002).

Conditions: following oral administration

Cn1cc([S+](C)[O-])c(=O)c2ccc(F)cc21 (stereo not shown) [flosequinan]
time of peak plasma concentrations: 1 to 2 h
